Results published in patent US20240383905A1, “FGFR INHIBITORS AND METHODS OF USE THEREOF” (3H PHARMACEUTICALS CO., LTD., priority 2021, published 2024).
Like-named read-outs stand apart in the source and are kept apart here.

Experiments:
[1] = Pharmacokinetics in SD Rat; assay type: in vivo, Sprague-Dawley (SD) rat; conditions: male SD rat, plasma
Experimental: Animal studies were done as approved protocols by the Institutional Animal Care and Use Committee at INVIVO Biotech Co., Ltd.
Animal information: Sprague-Dawley (SD) rat, SPF, 6-8 weeks, Male, weight 200-250 g, purchased from Beijing Vital River Lab (Beijing, People's Republic of China).
Formulation: Prepare 1.5 mg/ml and 0.6 mg/ml compound solution in […](20% HPβCD) for PO and IV respectively, dosing immediately after preparation.
Administration: PO and IV;

SNU16 cells = assay: SNU16 Cancer Cell Line Proliferation Assay (CellTiter-Glo); assay type: cell-based; conditions: Homo sapiens, SNU-16, 72 h
Procedure, shortened: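 Luminescent ATP read-out after 72 h at 37 °C gave IC50 values; compounds tested as 9 three-fold serial dilutions on 5000 SNU16 cells per well, with DMSO as control.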

FGFR1 = biological target: T1, FGFR1 (Homo sapiens, UniProt P11362); assay: FGFR1 Biochemical Caliper Assay (KinEASE-TK kit); conditions: ratio FGFR1/FGFR2 of the biochemical assay
T1 construct: purchased Carna 08-133
Procedure, shortened: (§1)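 KinEASE-TK HTRF readout: enzyme at 0.2 nM (FGFR1, FGFR3) preincubated 10 min at RT with 10-point 3-fold compound dilutions before TK-substrate/ATP start.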

FGFR2 = biological target: T2, FGFR2 (Homo sapiens, UniProt P21802); assay: FGFR2 Biochemical Caliper Assay (KinEASE-TK kit); conditions: 0.07 nM FGFR2; compound incubated with protein 10 min, reaction 45 min at RT; read-out: FGFR2 Cliper IC50
T2 construct: purchased Carna 08-134

FGFR3 = biological target: T3, FGFR3 (Homo sapiens, UniProt P22607); assay: FGFR3 Biochemical Caliper Assay (KinEASE-TK kit); conditions: ratio FGFR3/FGFR2 of the biochemical assay
T3 construct: purchased Carna 08-135
Procedure, shortened: as §1

[2] = Sprague-Dawley, PO 15 mg/kg (IV used for Clearance)
[3] = Sprague-Dawley, PO 15 mg/kg (IV used for Clearance), read-out: Cmax
[4] = PO 15 mg/kg (IV used for Clearance)

T1 sequence (P11362 22-822): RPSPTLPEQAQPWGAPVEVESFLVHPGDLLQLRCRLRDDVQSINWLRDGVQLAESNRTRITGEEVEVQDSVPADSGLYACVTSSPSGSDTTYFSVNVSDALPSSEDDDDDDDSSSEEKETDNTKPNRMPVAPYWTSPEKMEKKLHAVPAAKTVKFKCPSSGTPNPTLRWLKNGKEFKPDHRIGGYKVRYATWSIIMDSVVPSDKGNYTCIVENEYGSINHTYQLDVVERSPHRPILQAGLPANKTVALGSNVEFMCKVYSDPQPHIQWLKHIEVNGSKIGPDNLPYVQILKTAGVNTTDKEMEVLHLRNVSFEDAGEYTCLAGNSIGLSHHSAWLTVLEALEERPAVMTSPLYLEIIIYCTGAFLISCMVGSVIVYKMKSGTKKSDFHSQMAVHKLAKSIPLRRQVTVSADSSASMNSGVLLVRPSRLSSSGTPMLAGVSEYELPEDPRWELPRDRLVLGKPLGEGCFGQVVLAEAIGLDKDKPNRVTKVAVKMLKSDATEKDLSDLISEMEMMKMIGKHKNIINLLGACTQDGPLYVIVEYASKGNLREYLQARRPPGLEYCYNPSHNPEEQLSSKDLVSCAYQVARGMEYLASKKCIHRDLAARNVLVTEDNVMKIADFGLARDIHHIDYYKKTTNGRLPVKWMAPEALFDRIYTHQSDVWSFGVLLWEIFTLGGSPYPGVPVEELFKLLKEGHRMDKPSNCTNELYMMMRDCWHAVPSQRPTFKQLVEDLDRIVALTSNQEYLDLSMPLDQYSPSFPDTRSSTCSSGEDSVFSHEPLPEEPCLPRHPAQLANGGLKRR
T2 sequence (P21802 22-821): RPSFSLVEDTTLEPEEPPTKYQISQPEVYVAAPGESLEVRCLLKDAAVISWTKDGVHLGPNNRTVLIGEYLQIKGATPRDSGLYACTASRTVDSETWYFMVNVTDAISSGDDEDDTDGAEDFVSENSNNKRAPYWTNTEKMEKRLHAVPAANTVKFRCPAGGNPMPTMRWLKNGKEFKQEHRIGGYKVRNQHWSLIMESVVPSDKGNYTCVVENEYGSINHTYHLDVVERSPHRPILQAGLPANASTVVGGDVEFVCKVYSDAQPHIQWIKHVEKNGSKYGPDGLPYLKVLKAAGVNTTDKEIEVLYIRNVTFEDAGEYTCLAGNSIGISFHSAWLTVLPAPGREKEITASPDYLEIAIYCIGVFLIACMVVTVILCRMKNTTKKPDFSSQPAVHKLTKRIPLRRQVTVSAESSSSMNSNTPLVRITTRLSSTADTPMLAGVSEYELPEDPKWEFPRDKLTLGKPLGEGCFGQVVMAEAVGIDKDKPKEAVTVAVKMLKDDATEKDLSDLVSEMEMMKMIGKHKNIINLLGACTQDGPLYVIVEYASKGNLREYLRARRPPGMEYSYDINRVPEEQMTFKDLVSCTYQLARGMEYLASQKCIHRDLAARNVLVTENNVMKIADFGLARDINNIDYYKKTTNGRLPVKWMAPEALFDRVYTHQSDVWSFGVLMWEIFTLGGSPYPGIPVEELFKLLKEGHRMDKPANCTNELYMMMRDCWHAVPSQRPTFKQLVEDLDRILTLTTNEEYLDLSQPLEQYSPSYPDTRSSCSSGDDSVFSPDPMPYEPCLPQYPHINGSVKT
T3 sequence (P22607 23-806): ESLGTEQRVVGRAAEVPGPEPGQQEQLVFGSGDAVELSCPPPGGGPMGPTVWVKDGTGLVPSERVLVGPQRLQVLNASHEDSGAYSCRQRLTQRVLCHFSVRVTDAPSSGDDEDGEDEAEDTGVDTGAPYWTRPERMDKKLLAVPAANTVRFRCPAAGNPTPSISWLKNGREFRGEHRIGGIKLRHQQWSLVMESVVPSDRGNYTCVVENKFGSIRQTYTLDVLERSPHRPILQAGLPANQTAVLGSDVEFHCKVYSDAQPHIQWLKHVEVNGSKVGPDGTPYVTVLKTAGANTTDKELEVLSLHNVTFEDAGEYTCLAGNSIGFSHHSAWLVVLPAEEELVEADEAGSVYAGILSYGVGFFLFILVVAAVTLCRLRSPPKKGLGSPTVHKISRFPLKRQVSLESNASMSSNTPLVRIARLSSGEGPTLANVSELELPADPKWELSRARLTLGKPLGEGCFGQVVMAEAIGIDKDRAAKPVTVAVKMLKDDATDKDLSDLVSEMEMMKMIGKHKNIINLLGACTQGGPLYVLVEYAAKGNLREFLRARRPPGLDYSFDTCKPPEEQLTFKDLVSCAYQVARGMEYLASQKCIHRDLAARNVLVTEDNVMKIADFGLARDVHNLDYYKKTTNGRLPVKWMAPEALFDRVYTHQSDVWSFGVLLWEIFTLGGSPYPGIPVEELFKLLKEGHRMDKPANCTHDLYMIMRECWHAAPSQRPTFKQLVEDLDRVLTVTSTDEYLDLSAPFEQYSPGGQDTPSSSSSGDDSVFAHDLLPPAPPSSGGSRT

| SMILES | IC50 (SNU16 cells) | IC50 (FGFR2) | Selectivity FGFR1/FGFR2 (FGFR1) | Selectivity FGFR3/FGFR2 (FGFR3) | also measured |
| --- | --- | --- | --- | --- | --- |
| C=C(F)C(=O)Nc1ccc(-c2nn3ncnc(N)c3c2-c2ccc(C(=O)NCC(F)(F)F)c(OC)c2)cc1 [Compound 71, 4-(4-amino-6-(4-(2-fluoroacrylamido)phenyl)pyrazolo[5,1-f][1,2,4]triazin-5-yl)-2-methoxy-N-(2,2,2-trifluoroethyl)benzamide] | – | – | – | – | clearance ([1]; Sprague-Dawley, IV 3 mg/kg): 18 mL/min/kg; AUC(0-inf) [1, 2]: 3230 ng·h/mL; half-life [1, 2]: 1.8 h; Cmax [1, 3]: 1300 ng/mL |
| C=C(F)C(=O)Nc1ccc(-c2nn3ncnc(N)c3c2-c2ccc(C(=O)NC3CC(F)(F)C3)c(OC)c2)cc1 [Compound 99] | – | – | – | – | clearance ([1]; Sprague-Dawley, IV 3 mg/kg): 18 mL/min/kg; AUC(0-inf) [1, 2]: 3080 ng·h/mL; half-life [1, 2]: 1.4 h; Cmax [1, 3]: 2360 ng/mL |
| C=C(F)C(=O)Nc1ccc(-c2nn3ncnc(N)c3c2-c2ccc(C(=O)NC34CC(C3)C4)c(OC)c2)cc1 [Compound 270, 4-(4-amino-6-(4-(2-fluoroacrylamido)phe-nyl)pyrazolo[5,1-f][1,2,4]triazin-5-yl)-N-(bicyclo[1.1.1]pentan-1-yl)-2-methoxybenzamide] | – | – | – | – | Cl ([1]; IV 3 mg/kg): 18 mL/min/kg; AUC0-∞ [1, 4]: 3384 ng·h/mL; Cmax [1, 4]: 978 ng/mL; T1/2 [1, 4]: 2 h |
| C=C(F)C(=O)Nc1ccc(-c2[nH]c3c(C#N)cnc(N)c3c2-c2ccc(C(=O)NCC(F)(F)F)c(OC)c2)cc1 [Compound 302] | – | – | – | – | clearance ([1]; Sprague-Dawley, IV 3 mg/kg): 3.4 mL/min/kg; AUC(0-inf) [1, 2]: 1510 ng·h/mL; half-life [1, 2]: 2.7 h; Cmax [1, 3]: 615 ng/mL |
| C=C(F)C(=O)Nc1ccc(-c2nn3ncnc(N)c3c2-c2ccc(C(=O)NCCC(F)(F)F)c(OC)c2)cc1 [Compound 310] | – | – | – | – | clearance ([1]; Sprague-Dawley, IV 3 mg/kg): 16 mL/min/kg; AUC(0-inf) [1, 2]: 2970 ng·h/mL; half-life [1, 2]: 1.1 h; Cmax [1, 3]: 1190 ng/mL |
| C=C(F)C(=O)Nc1ccc(-c2nn3ncnc(N)c3c2-c2ccc(Oc3cccc(C)n3)c(F)c2)c(C)c1 [Compound 439, N-(4-(4-amino-5-(3-fluoro-4-((6-methylpyridin-2-yl)oxy)phenyl)pyrazolo [5,1-f][1,2,4]triazin-6-yl)-3-methylphenyl)-2-fluoroacrylamide] | ≤ 10 nM | < 5 nM | C (Selectivity of FGFR1/FGFR2 less than 200 but greater than or equal to 100) | B (Selectivity of FGFR3/FGFR2 less than 100 but greater than or equal to 25) | – |
| C=CC(=O)Nc1ccc(-c2c(-c3ccc(Oc4ncccn4)c(F)c3)c3c(N)ncc(C#N)c3n2C)cc1 [Compound 443, N-(4-(4-amino-7-cyano-3-(3-fluoro-4-(pyrimidin-2-yloxy)phenyl)-1-methyl-1H-pyrrolo[3,2-c]pyridin-2-yl)phenyl)acrylamide] | ≤ 10 nM | < 5 nM | C (Selectivity of FGFR1/FGFR2 less than 200 but greater than or equal to 100) | B (Selectivity of FGFR3/FGFR2 less than 100 but greater than or equal to 25) | – |
| C=CC(=O)Nc1ccc(-c2c(-c3cc(F)c(Oc4ncc(F)c(C)n4)c(F)c3)c3c(N)ncc(C#N)c3n2C)cc1 [Compound 497] | ≤ 10 nM | < 5 nM | A+ (Selectivity of FGFR1/FGFR2 greater or equal to 500) | A+ (Selectivity of FGFR3/FGFR2 greater or equal to 150) | – |

Continued, in another order:

| IC50 (SNU16 cells) | IC50 (FGFR2) | SMILES | Selectivity FGFR1/FGFR2 (FGFR1) | Selectivity FGFR3/FGFR2 (FGFR3) | also measured |
| --- | --- | --- | --- | --- | --- |
| ≤ 10 nM | > 10 nM | C=C(C)C(=O)Nc1ccc(-c2nn3ncnc(N)c3c2-c2ccc(Oc3nccc(C)n3)c(F)c2)c(C)c1 [Compound 450] | A+ (Selectivity of FGFR1/FGFR2 greater or equal to 500) | B (Selectivity of FGFR3/FGFR2 less than 100 but greater than or equal to 25) | – |
| ≤ 10 nM | < 5 nM | C=C(C)C(=O)Nc1ccc(-c2nn3ncnc(N)c3c2-c2ccc(Oc3nccc(C)n3)c(F)c2)c(Cl)c1 [Compound 451] | A (Selectivity of FGFR1/FGFR2 less than 500 but greater than or equal to 300) | B (Selectivity of FGFR3/FGFR2 less than 100 but greater than or equal to 25) | – |
| ≤ 10 nM | > 10 nM | C=C(C)C(=O)Nc1ccc(-c2c(-c3ccc(Oc4nccc(C)n4)cc3)c3c(N)ncc(C#N)c3n2C)c(F)c1 [Compound 467, N-(4-(4-amino-7-cyano-1-methyl-3-(4-((4-methylpyrimidin-2-yl)oxy)phenyl)-1H-pyrrolo[3,2-c]pyridin-2-yl)-3-fluorophenyl) methacrylamide] | A+ (Selectivity of FGFR1/FGFR2 greater or equal to 500) | A+ (Selectivity of FGFR3/FGFR2 greater or equal to 150) | – |
| ≤ 10 nM | > 10 nM | C=C(C)C(=O)Nc1ccc(-c2c(-c3ccc(Oc4cccc(C)n4)cc3)c3c(N)ncc(C#N)c3n2C)c(F)c1 [Compound 468, N-(4-(4-amino-7-cyano-1-methyl-3-(4-((6-methylpyridin-2-yl)oxy)phenyl)-1H-pyrrolo[3,2-c]pyridin-2-yl)-3-fluorophenyl) methacrylamide] | A+ (Selectivity of FGFR1/FGFR2 greater or equal to 500) | A+ (Selectivity of FGFR3/FGFR2 greater or equal to 150) | – |
| ≤ 10 nM | < 5 nM | C=C(C)C(=O)Nc1ccc(-c2c(-c3ccc(Oc4nccc(C)n4)c(F)c3)c3c(N)ncc(C#N)c3n2C)c(Cl)c1 [Compound 473, N-(4-(4-amino-7-cyano-3-(3-fluoro-4-((4-methylpyrimidin-2-yl)oxy)phenyl)-1-methyl-1H-pyrrolo[3,2-c]pyridin-2-yl)-3-chlorophenyl)methacrylamide] | A+ (Selectivity of FGFR1/FGFR2 greater or equal to 500) | A+ (Selectivity of FGFR3/FGFR2 greater or equal to 150) | – |
| ≤ 10 nM | 5 to 10 nM | C=C(C)C(=O)Nc1ccc(-c2c(-c3ccc(Oc4nccc(C)n4)cc3)c3c(N)ncc(C#N)c3n2C)c(Cl)c1 [Compound 474, N-(4-(4-amino-7-cyano-1-methyl-3-(4-((4-methylpyrimidin-2-yl)oxy)phenyl)-1H-pyrrolo[3,2-c]pyridin-2-yl)-3-chlorophenyl)methacrylamide] | A+ (Selectivity of FGFR1/FGFR2 greater or equal to 500) | A+ (Selectivity of FGFR3/FGFR2 greater or equal to 150) | – |
| ≤ 10 nM | > 10 nM | C=C(C)C(=O)Nc1ccc(-c2c(-c3ccc(Oc4nccc(C)n4)cc3)c3c(N)ncc(C#N)c3n2C)c(C)c1 [Compound 488, N-(4-(4-amino-7-cyano-1-methyl-3-(4-((4-methylpyrimidin-2-yl)oxy)phenyl)-1H-pyrrolo[3,2-c]pyridin-2-yl)-3-methylphenyl)methacrylamide] | A+ (Selectivity of FGFR1/FGFR2 greater or equal to 500) | A+ (Selectivity of FGFR3/FGFR2 greater or equal to 150) | – |
| ≤ 10 nM | > 10 nM | C=C(C)C(=O)Nc1ccc(-c2c(-c3ccc(Oc4nccc(C)n4)c(F)c3)c3c(N)ncc(C#N)c3n2C)c(C)c1 [Compound 501, N-(4-(4-amino-7-cyano-3-(3-fluoro-4-((4-methylpyrimidin-2-yl)oxy)phenyl)-1-methyl-1H-pyrrolo[3,2-c]pyridin-2-yl)-3-methylphenyl)methacrylamide] | A+ (Selectivity of FGFR1/FGFR2 greater or equal to 500) | A+ (Selectivity of FGFR3/FGFR2 greater or equal to 150) | – |
